Article PMC1568752 (Environmental Health Perspectives, 1985)

Key:
[1] = test system: hepatic microsomal AHH and EROD; assay: In vivo induction of rat hepatic microsomal AHH and EROD; settings: 300 umole/kg, immature male Wistar rats (Figure 7)
DMAP N-demethylase = assay: In vivo induction of rat hepatic microsomal DMAP N-demethylase; settings: 300 umole/kg, immature male Wistar rats (Figure 7)
[2] = test system: aryl hydrocarbon hydroxylase (AHH) induction in rat hepatoma H-4-II-E cells; settings: Table 1, PCB congeners; cited from earlier work
[3] = test system: ethoxyresorufin O-deethylase (EROD) induction in rat hepatoma H-4-II-E cells; settings: Table 1, PCB congeners; cited from earlier work
[4] = target: T1, 2,3,7,8-TCDD hepatic cytosolic receptor protein (Rattus norvegicus, UniProt P41738); assay: Competitive binding to the rat hepatic cytosolic 2,3,7,8-TCDD receptor protein; settings: for competition with [3H]-2,3,7,8-TCDD for the receptor binding protein: dose-response competition experiments, at high concentrations
T1 sequence (P41738 10-853): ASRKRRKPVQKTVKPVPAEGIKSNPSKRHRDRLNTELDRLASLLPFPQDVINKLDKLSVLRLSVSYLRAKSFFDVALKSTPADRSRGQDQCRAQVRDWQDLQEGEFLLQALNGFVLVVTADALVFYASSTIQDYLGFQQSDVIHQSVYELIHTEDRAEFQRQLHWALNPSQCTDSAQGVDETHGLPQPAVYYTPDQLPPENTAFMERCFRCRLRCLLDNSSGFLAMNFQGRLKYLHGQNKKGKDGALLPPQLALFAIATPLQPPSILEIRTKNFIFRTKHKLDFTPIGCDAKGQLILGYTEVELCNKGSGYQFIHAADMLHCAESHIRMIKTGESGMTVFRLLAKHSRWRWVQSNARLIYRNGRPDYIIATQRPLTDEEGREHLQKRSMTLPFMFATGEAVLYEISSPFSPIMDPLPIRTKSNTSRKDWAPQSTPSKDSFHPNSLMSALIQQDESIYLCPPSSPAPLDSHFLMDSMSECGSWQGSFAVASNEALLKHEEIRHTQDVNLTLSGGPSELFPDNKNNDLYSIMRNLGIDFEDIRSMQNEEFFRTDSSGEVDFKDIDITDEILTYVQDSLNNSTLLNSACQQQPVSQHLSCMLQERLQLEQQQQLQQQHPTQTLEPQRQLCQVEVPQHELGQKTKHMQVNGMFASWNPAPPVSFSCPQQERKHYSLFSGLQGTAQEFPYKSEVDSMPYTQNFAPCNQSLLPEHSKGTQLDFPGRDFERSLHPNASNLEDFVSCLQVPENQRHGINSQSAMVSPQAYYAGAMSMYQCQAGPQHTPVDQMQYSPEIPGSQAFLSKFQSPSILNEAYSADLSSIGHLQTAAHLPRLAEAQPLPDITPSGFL

rats = settings: cited from earlier work
pullets = settings: eggs from pullets receiving the PCB in their diet at 20 ppm; cited from earlier work
[5] = injected intraperitoneally on days 1 and 3, 150 umole/kg per injection in corn oil, killed on day 6

Compound | in vivo induction of DMAP N-demethylase (DMAP N-demethylase) | in vivo induction of microsomal AHH and EROD [1] | -log EC50 AHH induction [2] | -log EC50 EROD induction [3] | other results
Oc1ccc(-c2cc(Cl)c(Cl)c(Cl)c2Cl)cc1 [X = OH, 4'-Hydroxy-2,3,4,5-tetrachlorobiphenyl] |  |  |  |  | in vivo induction of the cytochrome P-450-dependent monooxygenases (AHH, EROD, DMAP N-demethylase) [1]: do not induce any
Clc1cc(-c2ccc(Br)cc2)c(Cl)c(Cl)c1Cl [X = Br, 4'-Bromo-2,3,4,5-tetrachlorobiphenyl] | inducers | significantly induced both |  |  | 
Clc1ccc(-c2ccc(Cl)c(Cl)c2Cl)cc1 [2,3,4,4'-Tetra] |  |  | 4.96 | 5.72 | 
Clc1cc2c(cc1Cl)Oc1cc(Cl)c(Cl)cc1O2 [TCDD, 2,3,7,8-tetrachlorodibenzo-p-dioxin, reference compound] |  |  | 10.02 | 10.10 | 
Clc1ccc(-c2cc(Cl)c(Cl)c(Cl)c2Cl)cc1 [2,3,4,4',5-Penta, 2,3,4,4',5-Pentachlorobiphenyl] | inducers | significantly induced both | 6.02 | 6.25 | 
Cc1ccc(-c2cc(Cl)c(Cl)c(Cl)c2Cl)cc1 [X = CH3, 4'-Methyl-2,3,4,5-tetrachlorobiphenyl] |  |  |  |  | in vivo induction of the cytochrome P-450-dependent monooxygenases (AHH, EROD, DMAP N-demethylase) [1]: do not induce any
FC(F)(F)c1ccc(-c2ccc(C(F)(F)F)c(C(F)(F)F)c2)cc1 [3,4,4'-tritrifluoromethylbiphenyl] |  |  |  |  | competitive binding affinity for the receptor protein ([4]; displacement of [3H]-2,3,7,8-TCDD): unexpectedly low
Fc1ccc(-c2cc(Cl)c(Cl)c(Cl)c2Cl)cc1 [X = F, 4'-Fluoro-2,3,4,5-tetrachlorobiphenyl] | inducers | significantly induced both |  |  | 
Clc1cc(-c2ccc(I)cc2)c(Cl)c(Cl)c1Cl [X= I, 4'-Iodo-2,3,4,5-tetrachlorobiphenyl] | inactive |  |  |  | 
Clc1ccc(-c2cc(Cl)c(Cl)c(Cl)c2)cc1Cl [3,3',4,4'5-Penta, 3,3',4,4',5-pentachlorobiphenyl] |  |  | 9.62 | 9.61 | 
Clc1cc(Cl)c(-c2cc(Cl)c(Cl)cc2Cl)cc1Cl [2,2',4,4',5,5'-Hexa, 2,2',4,4',5,5'-hexachlorobiphenyl] |  |  |  |  | competition with [3H]-2,3,7,8-TCDD for the receptor binding protein [4]: some competition
Clc1ccc(-c2cc(Cl)c(Cl)c(Cl)c2)c(Cl)c1 [2',3,4,4',5-Penta] |  |  | 5.41 | 5.95 | 
CC(C)(C)c1ccc(-c2cc(Cl)c(Cl)c(Cl)c2Cl)cc1 [C(CH3)3, 4'-tert-butyl-2,3,4,5-tetrachlorobiphenyl] | inactive | significantly induced both |  |  | 
CC(=O)c1ccc(-c2cc(Cl)c(Cl)c(Cl)c2Cl)cc1 [X = COCH3, 4'-Acetyl-2,3,4,5-tetrachlorobiphenyl] |  |  |  |  | in vivo induction of the cytochrome P-450-dependent monooxygenases (AHH, EROD, DMAP N-demethylase) [1]: do not induce any
Clc1ccc(-c2ccc(Cl)c(Cl)c2Cl)cc1Cl [2,3,3',4,4'-Penta, 2,3,3',4,4'-Pentachlorobiphenyl] |  |  | 7.06 | 6.92 | thymic atrophy (rats): thymic atrophy
Clc1ccc(-c2cc(Cl)c(Cl)c(Cl)c2Cl)cc1Cl [2,3,3',4,4',5-Hexa, 2,3,3',4,4',5-hexachlorobiphenyl] |  |  | 5.68 | 6.05 | thymic atrophy (rats): thymic atrophy
Clc1cc(-c2ccc(-c3ccccc3)cc2)c(Cl)c(Cl)c1Cl [C6H5, 4'-Phenyl-2,3,4,5-tetrachlorobiphenyl] |  | significantly induced both |  |  | 
Clc1cc(-c2ccc(Cl)c(Cl)c2Cl)cc(Cl)c1Cl [2,3,3',4,4',5'-Hexa, 2,3,3',4,4',5'-hexachlorobiphenyl] |  |  | 6.15 | 5.90 | thymic atrophy (rats): thymic atrophy
Clc1ccc(-c2cc(Cl)c(Cl)cc2Cl)cc1Cl [2,3',4,4',5-Penta, 2,3',4,4',5-pentachlorobiphenyl] |  |  | 4.94 | 5.05 | thymic atrophy (rats): thymic atrophy; embryo mortality (pullets): 100%
Clc1cc(-c2ccccc2)c(Cl)c(Cl)c1Cl [2,3,4,5-Tetra, 2,3,4,5-tetrachlorobiphenyl] |  |  |  |  | competition with [3H]-2,3,7,8-TCDD for the receptor binding protein [4]: some competition; in vivo induction of the cytochrome P-450-dependent monooxygenases (AHH, EROD, DMAP N-demethylase) [1]: do not induce any
CC(C)c1ccc(-c2cc(Cl)c(Cl)c(Cl)c2Cl)cc1 [X = i-C3H7, 4'-Isopropyl-2,3,4,5-tetrachlorobiphenyl] | inactive | significantly induced both |  |  | Residue levels in rat liver [5]: 1-4 ppm
Cc1ccc2cc3c(ccc4ccccc43)c3c2c1CC3 [3-MC, 3-methylcholanthrene, reference compound] |  |  | 5.89 | 6.20 | 
Clc1cc(Cl)c(-c2cc(Cl)c(Cl)c(Cl)c2)cc1Cl [2,3',4,4',5,5'-Hexa] |  |  | 4.88 | 5.05 | 
Clc1ccc(-c2ccc(Cl)c(Cl)c2)cc1Cl [3,3',4,4'-Tetra, 3,3',4,4'-tetrachlorobiphenyl] |  |  | 7.55 | 7.05 | 
O=[N+]([O-])c1ccc(-c2cc(Cl)c(Cl)c(Cl)c2Cl)cc1 [NO2, 4'-Nitro-2,3,4,5-tetrachlorobiphenyl] | inducers | significantly induced both |  |  | 
FC(F)(F)c1ccc(-c2cc(Cl)c(Cl)c(Cl)c2Cl)cc1 [X = CF3, 4'-Trifluoromethyl-2,3,4,5-tetrachlorobiphenyl] | inactive | significantly induced both |  |  | 
N#Cc1ccc(-c2cc(Cl)c(Cl)c(Cl)c2Cl)cc1 [X = CN, 4'-Cyano-2,3,4,5-tetrachlorobiphenyl] | inducers | significantly induced both |  |  | 
